# From patent US7547660B2, “Phenyl-substituted 4-hydroxy-tetrahydropyridones” (Bayer Aktiengesellschaft, priority 2000, dated 2009)
# Experiments:
# Format in all cases: in vivo
# [1] = test system: Tetranychus urticae; experiment: Tetranychus test (OP-resistent/dip treatment); details: 100 ppm active compound; after 7 days; bean plants dipped
# Experimental: Tetranychus Test (OP-Resistent/Dip Treatment)
# • Solvent: 30 parts by weight of dimethylformamide • Emulsifier: 1 part by weight of alkylaryl polyglycol ether
# To produce a suitable preparation of active compound, 1 part by weight of active compound is mixed with the stated amounts of solvent and emulsifier, and the concentrate is diluted with emulsifier-containing water to the desired concentration.
# Bean plants (Phaseolus vulgaris) which are heavily infested by all stages of the greenhouse […] spider mite (Tetranychus urticae) are treated by being dipped into a preparation of active compound of the desired concentration.
# After the desired period of time, the effect in % is determined. 100% means that all spider mites have been killed; 0% means that none of the spider mites have been killed.
# [2] = test system: Meloidogyne incognita; experiment: Meloidogyne test; details: 20 ppm active compound; after 14 days; lettuce
# Experimental: Meloidogyne Test • Solvent: 30 parts by weight of dimethylformamide • Emulsifier: 1 part by weight of alkylaryl polyglycol ether To produce a suitable preparation of active compound, 1 part by weight of active compound is mixed with the stated amounts of solvent and emulsifier, and the concentrate is diluted with water to the desired concentration. Containers are filled with sand, solution of active compound, Meloidogyne incognita egg/larvae suspension and lettuce seeds. The lettuce seeds germinate and the plants develop. On the roots, galls are formed. After the desired period of time, the nematicidal action in % is determined using the formation of galls as a measure. 100% means that no galls have been found; 0% means that the number of galls on the treated plants corresponds to that on the untreated control.
# [3] = test system: Amaranthus; experiment: Post-emergence test, greenhouse; details: after three weeks
# Experimental: (§1) • Solvent: 5 parts by weight of acetone • Emulsifier: 1 part by weight of alkylaryl polyglycol ether
# (§2) To produce a suitable preparation of active compound, 1 part by weight of active compound is mixed with the stated amount of solvent, the stated amount of emulsifier is added and the concentrate is diluted with water to the desired concentration.
# (§3) Test plants of a height of 5-15 cm are sprayed with the preparation of active compound such that the particular amounts of active compound desired are applied per unit area. The concentration of the spray liquor was chosen such that the particular amounts of active compound desired are applied in 1 000 l of water/ha.
# (§4) After three weeks, the degree of damage to the plants is rated in % damage in comparison to the development of the untreated control.
# (§5) The figures denote: • 0%=no effect (like untreated control) • 100%=total destruction
# [4] = test system: Sugar beet; experiment: Post-emergence test, greenhouse; details: after three weeks
# Experimental: as §1, §2, §3, §4, §5
# [5] = test system: Echinochloa; experiment: Post-emergence test, greenhouse; details: after three weeks
# Experimental: as §1, §2, §3, §4, §5
# [6] = test system: Setaria; experiment: Post-emergence test, greenhouse; details: after three weeks
# Experimental: as §1, §2, §3, §4, §5
# [7] = test system: Amaranthus; experiment: Pre-emergence test, greenhouse; details: 500 g/ha, after three weeks
# Experimental: as §1
# (§6) To produce a suitable preparation of active compound, 1 part by weight of active compound is mixed to the stated amount of solvent, the stated amount of emulsifier is added and the concentrate is diluted with water to the desired concentration.
# (§7) Seeds of the test plants are sown in normal soil. After about 24 hours, the soil is sprayed with the preparation of active compounds such that the particular amounts of active compound desired are applied per unit area. The concentration of the spray liquor is chosen such that the particular amounts of active compound desired are applied in 1 000 l of water/ha.
# as §4, §5
# [8] = test system: Galium; experiment: Pre-emergence test, greenhouse; details: 500 g/ha, after three weeks
# Experimental: as §1, §6, §7, §4, §5
# [9] = test system: Alopecurus; experiment: Pre-emergence test, greenhouse; details: after three weeks
# Experimental: as §1, §6, §7, §4, §5
# [10] = test system: Alopecurus; experiment: Post-emergence test, greenhouse; details: 2 000 g/ha, after three weeks
# Experimental: as §1, §2, §3, §4, §5
# [11] = test system: Digitaria; experiment: Pre-emergence test, greenhouse; details: 250 g/ha, after three weeks
# Experimental: as §1, §6, §7, §4, §5
# [12] = test system: Lolium; experiment: Pre-emergence test, greenhouse; details: 250 g/ha, after three weeks
# Experimental: as §1, §6, §7, §4, §5
# [13] = test system: Soya; experiment: Pre-emergence test, greenhouse; details: 250 g/ha, after three weeks
# Experimental: as §1, §6, §7, §4, §5
# [14] = test system: Echinochloa; experiment: Pre-emergence test, greenhouse; details: after three weeks
# Experimental: as §1, §6, §7, §4, §5
# [15] = test system: Setaria; experiment: Pre-emergence test, greenhouse; details: after three weeks
# Experimental: as §1, §6, §7, §4, §5
# [16] = test system: Wheat; experiment: Pre-emergence test, greenhouse; details: 250 g/ha, after three weeks
# Experimental: as §1, §6, §7, §4, §5
# [17] = test system: Avena fatua; experiment: Post-emergence test, greenhouse; details: 2 000 g/ha, after three weeks
# Experimental: as §1, §2, §3, §4, §5
# [18] = test system: Avena fatua; experiment: Pre-emergence test, greenhouse; details: 2 000 g/ha, after three weeks
# Experimental: as §1, §6, §7, §4, §5
smiles,measurement,setting,value
Cc1ccc(-c2ccc(Cl)cc2)cc1C1=C(O)CC(C)(C)NC1=O [I-a-5],kill of spider mites,[1],99%
Cc1ccc(Br)cc1C1=C(O)CC(C)(C)NC1=O [I-a-4],"kill (nematicidal action, formation of galls as measure)",[2],95%
CCOC(=O)OC1=C(c2cc(-c3ccc(Cl)cc3)ccc2C)C(=O)NC(C)(C)C1 [I-c-1],% damage Amaranthus,[3]; 250 g/ha,80%
same,% damage Sugar beet,[4]; 250 g/ha,0%
same,% damage Echinochloa,[5]; 250 g/ha,70%
same,% damage Setaria,[6]; 250 g/ha,80%
same,kill of spider mites,[1],95%
Cc1cc(Cl)cc(Cl)c1C1=C(O)CC(C)(C)NC1=O [I-a-3],% damage Amaranthus,[7],70%
same,% damage Galium,[8],100%
same,% damage Alopecurus,[9]; 500 g/ha,70%
Cc1cc(Br)cc(Cl)c1C1=C(O)CC(C)(C)NC1=O [I-a-10],% damage Amaranthus,[3]; 2 000 g/ha,70%
same,% damage Sugar beet,[4]; 2 000 g/ha,0%
same,% damage Alopecurus,[10],70%
same,% damage Echinochloa,[5]; 2 000 g/ha,80%
same,% damage Setaria,[6]; 2 000 g/ha,80%
same,% damage Digitaria,[11],90%
same,% damage Lolium,[12],100%
same,% damage Soya,[13],0%
same,% damage Echinochloa,[14]; 250 g/ha,80%
same,% damage Setaria,[15]; 250 g/ha,95%
same,% damage Wheat,[16],0%
CCc1cc(Br)cc(Cl)c1C1=C(O)CC(C)(C)NC1=O [I-a-11],% damage Avena fatua,[17],100%
same,% damage Sugar beet,[4]; 2 000 g/ha,90%
same,% damage Alopecurus,[10],95%
same,% damage Echinochloa,[5]; 2 000 g/ha,100%
same,% damage Setaria,[6]; 2 000 g/ha,100%
same,% damage Avena fatua,[18],100%
same,% damage Alopecurus,[9]; 2 000 g/ha,100%
same,% damage Echinochloa,[14]; 2 000 g/ha,100%
same,% damage Setaria,[15]; 2 000 g/ha,100%
